Entries after “also recorded” stand apart in the source; their conditions may differ. Counter-ions that a name gives are not always drawn. Like-named read-outs stand apart in the source and are kept apart here.
Experiments:
[1] = system: Aerobacter aerogenes; test: in vivo protection of infected mice; conditions: subcutaneous route × two doses
Protocol: (§1) Methods: The method employed in this characterization is as follows: Female white Swiss mice, average weight 20-23 grams, were infected intraperitoneally with 3-20 times the number of organisms calculated to be lethal for 50% of the infected control animals (3-20 LD50 doses). At the time of infection and again 6 hours later, therapy was given by the designated route. Controls of the virulence of the culture and the toxicity of the antibiotic for uninfected mice were included in the tests. Seven days after infection the test was considered complete and the amount of the antibiotic (I) that would be required to protect 50% of the infected and treated animals was calculated by the method of Knudsen and Curtis: J. Amer. Stat. Assoc. Vol. 42: page 282 (1947).
(§2) The method employed in these studies is the same as described above with regard to the in vivo characterization of 810A. The results of these tests are described below in Table XIb:
(§3) Administration was by subcutaneous injection. At the completion of the test period, usually 7 days after administration, the amount of product required to protect 50% of the mice (ED50) from this otherwise fatal injection was calculated: […]

[2] = system: Diplococcus pneumoniae 2400; test: in vivo protection of infected mice; conditions: subcutaneous route × two doses
Protocol: as §1, §2, §3

[3] = system: Escherichia coli; test: in vivo protection of infected mice; conditions: subcutaneous route × two doses
Protocol: as §1, §2, §3

[4] = system: Klebsiella pneumoniae AD; test: in vivo protection of infected mice; conditions: subcutaneous route × two doses
Protocol: as §1, §2, §3

[5] = system: Klebsiella pneumoniae B; test: in vivo protection of infected mice; conditions: subcutaneous route × two doses
Protocol: as §1, §2, §3

[6] = system: Paracolobactrum arizonae; test: in vivo protection of infected mice; conditions: subcutaneous route × two doses
Protocol: as §1, §2, §3

[7] = system: Pasteurella multocida; test: in vivo protection of infected mice; conditions: subcutaneous route × two doses
Protocol: as §1, §2, §3

[8] = system: Proteus mirabilis; test: in vivo protection of infected mice; conditions: subcutaneous route × two doses
Protocol: as §1, §2, §3

[9] = system: Proteus morganii 3202; test: in vivo protection of infected mice; conditions: for protection of infected mice: subcutaneous, 4000 mg. × 2 doses (so in the source)
Protocol: as §1, §2, §3

[10] = system: Proteus vulgaris; test: in vivo protection of infected mice; conditions: subcutaneous route × two doses
Protocol: as §1, §2, §3

[11] = system: Salmonella schottmuelleri; test: in vivo protection of infected mice; conditions: subcutaneous route × two doses
Protocol: as §1, §2, §3

[12] = system: Salmonella typhosa; test: in vivo protection of infected mice; conditions: subcutaneous route × two doses
Protocol: as §1, §2, §3

[13] = system: Proteus morganii 356; test: mouse protection test, clinical isolate; type: in vivo, mice; conditions: subcutaneous route × 2 doses (average of two trials)
Protocol: as §1
Administration was by subcutaneous injection. At the completion of the test period, usually 7 days after administration, the amount of product required to protect 50% of the mice (ED50) from this otherwise fatal injection was calculated:
In addition to the aforementioned in vivo trials of the product, a clinical isolate of Proteus morganii 356 which is resistant to cephalosporins and capable of degrading cephalosporin C, was employed in a mouse protection test performed in the same manner as reported above.

[14] = system: gram-negative and gram-positive organisms; test: in vivo activity against infections (in words); set-up: species or system mice; conditions: for in vivo gram-negative potency compared with cephalothin: in general
Protocol: as §1
The method employed in these studies is the same as described above with regard to the in vivo characterization of 810A.

[15] = blood appearance and urinary excretion; type: in vivo; conditions: within four hours after administration; 240 min
[16] = system: Escherichia coli 236; test: bacterial inactivation
Protocol: (§4) These cultures are: Escherichia coli 236, Proteus morganii 251, Proteus morganii 356 and Proteus mirabilis 241. […] In conducting the assay, individual mixtures of the organisms and one of the antibiotics were sampled after 4 hours incubation and assayed for residual antibiotic activity. The procedure is the same assay method as described above against Alcaligenes faecalis MB-9 and A. viscosus MB-12.

[17] = system: Proteus mirabilis 241; test: bacterial inactivation
Protocol: as §4

[18] = system: Proteus morganii 251; test: bacterial inactivation
Protocol: as §4

[19] = system: Proteus morganii 356; test: bacterial inactivation
Protocol: as §4

[20] = system: cephalosporinases; test: resistance to cephalosporinases / enzymatic degradation; type: biochemical
[21] = isoelectric point and pH stability; type: physicochemical
[22] = system: gram-negative and gram-positive bacteria; test: antibacterial activity (in words); type: cell-based
[23] = system: Salmonella; test: activity against Salmonella (in words); type: cell-based
[24] = system: Alcaligenes faecalis (MB-9)
[25] = system: Alcaligenes viscosus (MB-12); conditions: 4 h
[26] = system: Alcaligenes faecalis (MB-9); test: bacterial inactivation by washed cells
[27] = system: Vibrio percolans (MB-1272); test: disc-plate assay using Vibrio percolans
[28] = system: Aerobacter cloacae (MB-2646); test: inactivation by cell-free filtrate; type: biochemical; conditions: for Antibiotic Activity Remaining: starting concentration 250 μg./ml.
Protocol: The ability of Antibiotic 810A and cephalosporin C to withstand the degradative effect of the culture Aerobacter cloacae (MB-2646) was also determined. This culture is gram-negative and resistant to cephalosporin C. […] The source of the inactivating substance is a 1:160 dilution of the filtrate of an 18 hour 37° C. shake culture of Aerobacter cloacae MB-2646 in nutrient broth containing 0.2% yeast extract. Table XIV, infra, indicates the percent inactivation of Antibiotic 810A, cephalothin, cephaloridine and cephalosporin C on Vibrio percolans (MB-1272) via this method:
Using the same assay procedure as described above, Table XV, infra, indicates the relative resistance of Antibiotic 810A to enzymatic inactivation by Aerobacter cloacae. The starting concentration in 250 μg./ml. Results are expressed in μg./ml.

[29] = system: Alcaligenes faecalis (MB-9); conditions: organism known to inactivate; cited from earlier work
[30] = system: Alcaligenes viscosus (MB-12); conditions: organism known to inactivate; cited from earlier work
[31] = system: penicillinase; conditions: background statement; cited from earlier work
[32] = system: cephalosporinases; conditions: background statement; cited from earlier work
[33] = system: gram-negative and gram-positive bacteria; conditions: background statement, cited from earlier work
[34] = system: Alcaligenes viscosus (MB-12); test: bacterial inactivation by washed cells; conditions: 4 hour incubation; assayed on B. subtilis (MB-964)
[35] = 2 hour incubation, assay organism B. subtilis 964
[36] = 2 hour incubation, assay organism V. percolans 1272
[37] = 2 hour incubation, assayed on V. percolans (MB-1272)
[38] = 4 hours incubation, assayed on B. subtilis (MB-964)

CO[C@@]1(NC(=O)CCC[C@@H](N)C(=O)O)C(=O)N2C(C(=O)O)=C(COC(N)=O)CS[C@@H]21 [Antibiotic 842A]
ED50 [1]: 49 µg
ED50 [2]: 566 µg
ED50 [3]: 200 µg
ED50 [4]: 125 µg
ED50 [5]: 125 µg
ED50 [6]: 125 µg
ED50 [7]: 57 µg
ED50 [8]: 276 µg
ED50 ([9]; subcutaneous route × two doses): 276 µg
ED50 [10]: 51 µg
ED50 [11]: 103 µg
ED50 [12]: 34 µg
ED50 [13]: 273 µg
oral protection against infections ([14]; given orally): protects against infections due to Paracolobactrum arizonae 3270, Proteus vulgaris 1810, and Salmonella schottmuelleri 3010
in vivo gram-negative potency compared with cephalothin [14]: greater than cephalothin
in vivo gram-negative potency compared with cephalothin ([14]; listed as 842A): generally increased gram-negative effect and an increased potency when compared to cephalothin
in vivo activity / protection against infections ([14]; mouse, in vivo): effectiveness in vivo on Proteus morganii and an effectiveness against the following gram-negative bacteria: Escherichia coli, Proteus vulgaris, Proteus mirabilis, Proteus morganii, Salmonella schottmuelleri, Klebsiella pneumoniae AD, Klebsiella pneumoniae B, and Paracolobactrum arizonae; also recorded: protects against infection with three species of Proteus, two of Salmonella, one strain of Escherichia coli, two of Klebsiella and also against Paracolobactrum arizonae, Aerobacter aerogenes, Pasteurella multocida and Diplococcus pneumoniae 2400
protection from gram-negative infection compared with known antibiotics ([14]; subcutaneously to mice): generally more active than cephalothin; also recorded: approximately equal to cephaloridine, ampicillin and chloromycetin
eliminated in the urine [15]: approximately 80%
percent inactivation ([16]; bacterial cells, 4 h): 38%
percent inactivation ([17]; bacterial cells, 4 h): 5%
percent inactivation ([18]; bacterial cells, 4 h): 80%
percent inactivation ([19]; bacterial cells, 4 h): 69%
resistance to cephalosporinases [20]: a greater resistance to cephalosporinases
resistance to enzymatic degradation compared with cephalosporin C [20]: more resistant to enzymatic degradation than cephalosporin C
stability ([21]; above pH 7): unstable
stability ([21]; above pH 9.0): unstable
stability ([21]; pH 1.5): relatively stable
stability ([21]; pH 1.5, listed as 842A): stable
antibacterial effect (in words) [22]: enhanced activity against gram-negative microorganisms
bactericidal action [22]: bactericidal
development of resistance [22]: resistance to it develops slowly
growth inhibition of gram-negative bacteria ([22]; in vitro): inhibits the growth of the following gram-negative bacteria: Escherichia coli, Proteus vulgaris, Alcaligenes faecalis, Brucella bronchiseptica, Salmonella gallinarum, Vibrio percolans and Xanthomonas vesicatoria
growth inhibition of gram-positive bacteria ([22]; in vitro): inhibits the growth of the following gram-positive bacteria: Staphylococcus aureus, Sarcina lutea and Bacillus subtilis
activity against Salmonella species [23]: exhibits activity against Salmonella schottmuelleri 3010, S. gallinarum and S. typhosa
Percent Inactivation After Incubation With Washed Bacterial Cells ([24]; 4 h): 0%
Percent Inactivation After Incubation With Washed Bacterial Cells [25]: 54.4%
resistance to inactivation compared with cephalosporin C ([26]; A. faecalis, A. viscosus, E. coli 236, P. morganii 251 and 236 (so in the source), P. mirabilis 241): more resistant than cephalosporin C
stability to bacterial inactivation ([26]; compared with cephalosporin C, cephaloridine and cephalothin, certain microorganisms): more stable than the latter against certain microorganisms
inhibition zone ([27]; Example 9 broth after 4 days, 0.5 inch discs): 33 mm.

O=C(Cc1cccs1)N[C@@H]1C(=O)N2C(C(=O)[O-])=C(C[n+]3ccccc3)CS[C@H]12 [Cephaloridine]
protection of infected mice [9]: failed to protect
ED50 [13]: 9,270 μg.
Percent Inactivation After Incubation With Cell-Free Extract ([28]; aerobacter cloacae culture filtrate, 2 h): 96%
Antibiotic Activity Remaining [28, 35]: < 10 µg/mL
Antibiotic Activity Remaining [28, 36]: < 10 µg/mL

CC(=O)OCC1=C(C(=O)O)N2C(=O)[C@@H](NC(=O)CCC[C@@H](N)C(=O)O)[C@H]2SC1 [Cephalosporin C]
Percent Inactivation After Incubation With Cell-Free Extract [28, 37]: 96%
percent inactivation [16, 38]: > 99%
percent inactivation [17, 38]: 72%
percent inactivation [18, 38]: > 99%
percent inactivation [19, 38]: > 99%
inactivation of cephalosporin C [29]: completely inactivate
inactivation of cephalosporin C [30]: completely inactivate
behaviour toward penicillinase [31]: inherent resistance to penicillinase
behaviour toward cephalosporinases [32]: effective in destroying its activity
antibacterial activity [33]: only moderately active
antibacterial activity ([33]; listed as cephalosporin C): relatively low antibacterial activity
Percent Inactivation After Incubation With Washed Bacterial Cells ([26]; 3 hour incubation, assayed on B. subtilis (MB-964), 4 mg./ml.): > 99%
Percent Inactivation After Incubation With Washed Bacterial Cells ([26]; 3 hour incubation, assayed on V. percolans (MB-1272)): > 99%
Percent Inactivation After Incubation With Washed Bacterial Cells ([26]; 4 hour incubation, assayed on B. subtilis (MB-964)): > 99%
Percent Inactivation After Incubation With Washed Bacterial Cells [34]: > 99%

CC(=O)OCC1=C(C(=O)O)N2C(=O)[C@@H](NC(=O)Cc3cccs3)[C@H]2SC1 [Cephalothin]
protection of infected mice [9]: failed to protect
ED50 [13]: > 20,000 μg.
Percent Inactivation After Incubation With Cell-Free Extract [28, 37]: 66%
Antibiotic Activity Remaining [28, 35]: 140 µg/mL
Antibiotic Activity Remaining [28, 36]: 85 µg/mL
Percent Inactivation After Incubation With Washed Bacterial Cells ([24]; 3 h): 50%

CC1(C)S[C@@H]2[C@H](NC(=O)Cc3ccccc3)C(=O)N2[C@H]1C(=O)O [Penicillin G]
behaviour toward penicillinase [31]: degraded to a form which is ineffective against most pathogens

CO[C@@]1(NC(=O)CCC[C@@H](N)C(=O)O)C(=O)N2C(C(=O)O)=C(COC(N)=O)CS[C@@H]21 [Sodium Salt]
IC (25 mm zone) ([27]; Comamonas terrigena, read-out: concentration giving a 25 mm. zone, Example 11 concentrate at a dilution of 1:100): 400 µg/mL
